{"source": "paper PMC5054527", "about": "“Mechanism of high affinity inhibition of the human urate transporter URAT1” (Scientific Reports, 2016)", "assay_in_all_cases": "URAT1 uric acid transport activity assay", "type_in_all_cases": "cell-based", "key": {"rat URAT1 (rURAT1 WT)": {"target": "T1, rat URAT1 (rURAT1 WT) (Rattus norvegicus, UniProt Q3ZAV1)", "T1 sequence (Q3ZAV1 1-553)": "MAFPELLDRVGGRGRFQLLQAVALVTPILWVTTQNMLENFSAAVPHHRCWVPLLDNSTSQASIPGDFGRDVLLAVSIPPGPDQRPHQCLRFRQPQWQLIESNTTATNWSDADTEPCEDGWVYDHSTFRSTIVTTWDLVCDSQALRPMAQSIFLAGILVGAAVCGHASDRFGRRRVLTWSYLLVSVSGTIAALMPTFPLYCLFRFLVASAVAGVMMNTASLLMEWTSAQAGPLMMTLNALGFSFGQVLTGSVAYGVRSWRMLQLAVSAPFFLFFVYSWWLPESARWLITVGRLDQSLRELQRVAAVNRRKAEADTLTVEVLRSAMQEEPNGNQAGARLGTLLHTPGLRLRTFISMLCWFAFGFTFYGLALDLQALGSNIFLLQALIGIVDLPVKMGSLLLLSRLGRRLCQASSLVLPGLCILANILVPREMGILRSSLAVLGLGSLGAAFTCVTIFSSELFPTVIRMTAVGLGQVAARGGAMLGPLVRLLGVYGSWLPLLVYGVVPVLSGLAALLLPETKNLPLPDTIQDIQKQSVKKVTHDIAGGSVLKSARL"}, "[1]": {"target": "T2, r-L18V rURAT1 point mutant (Rattus norvegicus, UniProt Q3ZAV1, L18V)", "T2 sequence (Q3ZAV1 1-553 L18V)": "T1 sequence (Q3ZAV1 1-553) with L18V", "outline": "(§1)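 Cells expressing site-directed rat URAT1 mutants were exposed to inhibitor dilutions for 5 minutes before radiolabelled uric acid (100 μM) was added for 10 minutes. Potency was derived by nonlinear regression of log inhibitor versus response.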"}, "[2]": {"target": "T3, r-N35S/Y365F rURAT1 double point mutant (Rattus norvegicus, UniProt Q3ZAV1, N35S/Y365F)", "T3 construct": "expressed in transfected cells; host or cells: HEK-293T", "T3 sequence (Q3ZAV1 1-553 N35S/Y365F)": "T1 sequence (Q3ZAV1 1-553) with N35S, Y365F", "outline": "as §1"}, "[3]": {"conditions": "rURAT1 WT, MES pH 5.5, 100 μM 14C-uric acid, read-out: IC50 (uric acid transport)"}, "[4]": {"conditions": "r-N35S/Y365F, MES pH 5.5, 100 μM 14C-uric acid, read-out: IC50 (uric acid transport)"}}, "note": "Where a chain is given by its changes, count along the chain named. Read-outs that look alike come from different tables or passages of the source."}
{"smiles": "O=C1C(CC[S+]([O-])c2ccccc2)C(=O)N(c2ccccc2)N1c1ccccc1", "note": "(stereo not drawn) [sulfinpyrazone]", "values": [{"measurement": "IC50", "setting": "rat URAT1 (rURAT1 WT); rURAT1 WT, HEPES pH 7.3, 100 μM 14C-uric acid, read-out: IC50 (uric acid transport)", "result": 680, "unit": "µM"}, {"measurement": "IC50", "setting": "[1]; r-L18V, HEPES pH 7.3, 100 μM 14C-uric acid, read-out: IC50 (uric acid transport)", "result": "971 ± 89", "unit": "µM"}, {"measurement": "IC50", "setting": "[2]; r-N35S/Y365F, HEPES pH 7.3, 100 μM 14C-uric acid, read-out: IC50 (uric acid transport)", "result": "142 ± 15", "unit": "µM"}]}
{"smiles": "O=c1[nH]c(=O)c2[nH]c(=O)[nH]c2[nH]1", "note": "[uric acid]", "values": [{"measurement": "IC50", "setting": "rat URAT1 (rURAT1 WT); [3]", "result": 2630, "unit": "µM"}, {"measurement": "fold increased affinity of r-N35S/Y365F compared to rURAT1", "setting": "[2]; from IC50 values", "result": 5.4, "unit": "fold"}, {"measurement": "IC50", "setting": "[2]; [4]", "result": 484, "unit": "µM"}]}
{"smiles": "O=C(O)CSc1nnc(Br)n1-c1ccc(C2CC2)c2ccccc12", "note": "[lesinurad, 2-((5-bromo-4-(4-cyclopropylnaphthalen-1-yl)-4H-1,2,4-triazol-3-yl)thio)acetic acid]", "values": [{"measurement": "IC50", "setting": "rat URAT1 (rURAT1 WT); [3]", "result": 81, "unit": "µM"}, {"measurement": "IC50", "setting": "[1]; r-L18V, MES pH 5.5, 100 μM 14C-uric acid, read-out: IC50 (uric acid transport)", "result": "78 ± 6.6", "unit": "µM"}, {"measurement": "IC50", "setting": "[2]; [4]", "result": "1.6 ± 0.03", "unit": "µM"}]}
{"smiles": "CCc1oc2ccccc2c1C(=O)c1cc(Br)c(O)c(Br)c1", "note": "[benzbromarone]", "values": [{"measurement": "IC50", "setting": "rat URAT1 (rURAT1 WT)", "result": 26, "unit": "µM"}, {"measurement": "IC50", "setting": "[1]", "result": "24 ± 3.1", "unit": "µM"}, {"measurement": "IC50", "setting": "[2]", "result": "2.2 ± 0.29", "unit": "µM"}]}
